The text below walks through data of publication PMC3652196, “Pharmacometrics of 3-Methoxypterostilbene: A Component of Traditional Chinese Medicinal Plants” (Evidence-based Complementary and Alternative Medicine : eCAM, 2013).

The subject of data set [1] is α-glucosidase from Saccharomyces cerevisiae. Kind of data set: α-Glucosidase inhibition colorimetric assay (PNPG). It counts as biochemical. The following applies: 0 to 200 μg/mL, n = 6.
For data set [2] the following is noted: humans; cited from earlier work.

In the case of `Oc1ccc(/C=C/c2cc(O)cc(O)c2)cc1` [resveratrol], the “α-Glucosidase inhibition (in words)” value in data set [1] was “clear positive concentration-dependent inhibition relationship”. Also, the bioavailability in data set [2] is under 1%.

A word on the bioavailability: it is the share of a dose that reaches the circulation, judged against a reference dose that is usually intravenous.
